Assay results taken from patent publication US8703805B2 (Exelixis Patent Company LLC, priority 2005, dated 2014).

system: LXRα and/or LXRβ; test: LXR/LXRE co-transfection assay (luciferase reporter, CV-1 cells); assay type: cell-based, human; conditions: IC50 or EC50 for LXR (LXRα and/or LXRβ, not distinguished), tested as described in Example 109, CV-1 cells
Method in brief: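 Luciferase readout after 20 h compound exposure at 37 °C in CV-1 cells transiently expressing human LXRα or LXRβ with RXRα and an LXRE-driven reporter. Dose-response over 8 points at ½-log spacing, 4 wells each, fitted for EC50/IC50; values average ≥3 independent experiments, efficacy as % of high control.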

EC50 [nM] | Compound
< 1000 | CO/N=C(\C)c1cc(-c2ccc(-c3cccc(S(C)(=O)=O)c3)s2)n(-c2ccccc2Cl)n1 [Example 1177, (1E)-1-[1-(2-chlorophenyl)-5-{5-[3-(methylsulfonyl)phenyl]-2-thienyl}-1H-pyrazol-3-yl]ethanone O-methyloxime]
< 1000 | CC(C)(O)c1cccc(-c2ccc(-c3cc(C(C)(C)O)nn3-c3ccccc3Cl)cc2)c1 [Example 1307, 2-{1-(2-chlorophenyl)-5-[3′-(1-hydroxy-1-methylethyl)biphenyl-4-yl]-1H-pyrazol-3-yl}propan-2-ol]
< 1000 | CC(O)(c1cc(-c2ccc(-c3cccc(S(C)(=O)=O)c3)s2)n(-c2ccccc2Cl)n1)C(F)(F)F (stereo not drawn) [Example 1182, 2-[1-(2-chlorophenyl)-5-{5-[3-(methylsulfonyl)phenyl]-2-thienyl}-1H-pyrazol-3-yl]-1,1,1-trifluoropropan-2-ol]
< 1000 | CC(C)(O)c1nn(-c2ccccc2C(F)(F)F)c(-c2ccc(-c3cccc(S(C)(=O)=O)c3)s2)c1Cl [Example 1350, 2-(4-chloro-5-{5-[3-(methylsulfonyl)phenyl]-2-thienyl}-1-[2-(trifluoromethyl)phenyl]-1H-pyrazol-3-yl)propan-2-ol]
< 1000 | CC(=O)c1cc(-c2ccc(-c3cccc(S(=O)(=O)C(C)C)c3)s2)n(-c2ncccc2C(F)(F)F)n1 [Example 1183, 1-{5-(5-{3-[(1-methylethyl)sulfonyl)phenyl}-2-thienyl)-1-[3-(trifluoromethyl)pyridin-2-yl]-1H-pyrazol-3-yl}ethanone]
< 1000 | CC(=O)c1cc(-c2ccc(-c3cccc(S(C)(=O)=O)c3)s2)n(-c2cc(Cl)ccc2Oc2ccccc2)n1 [Example 1213, 1-(1-[5-chloro-2-(phenyloxy)phenyl]-5-{5-[3-(methylsulfonyl)phenyl]-2-thienyl}-1H-pyrazol-3-yl)ethanone]
< 1000 | CS(=O)(=O)c1cccc(-c2ccc(-c3cc(C(O)(C(F)(F)F)C(F)(F)F)nn3-c3ccccc3Cl)s2)c1 [Example 1164, 2-[1-(2-chlorophenyl)-5-{5-[3-(methylsulfonyl)phenyl]-2-thienyl}-1H-pyrazol-3-yl]-1,1,1,3,3,3-hexafluoropropan-2-ol]
< 1000 | CC(C)(O)c1cc(-c2ccc(-c3cccc(S(C)(=O)=O)c3)s2)n(-c2c(Cl)cncc2Cl)n1 [Example 126, 2-(1-(3,5-dichloropyridin-4-yl)-5-(5-(3-(methylsulfonyl)phenyl)thiophen-2-yl)-1H-pyrazol-3-yl)propan-2-ol]
< 1000 | CC(C)(O)c1nn(-c2ccccc2Br)c(-c2ccc(-c3cccc(S(C)(=O)=O)c3)s2)c1Br [Example 1360, 2-[4-bromo-1-(2-bromophenyl)-5-{5-[3-(methylsulfonyl)phenyl]-2-thienyl}-1H-pyrazol-3-yl]propan-2-ol]
< 1000 | Cn1c(-c2cccc(S(C)(=O)=O)c2)ccc1-c1cc(C(C)(C)O)nn1-c1ccccc1Cl [Example 1383, 2-(1-(2-chlorophenyl)-5-(1-methyl-5-(3-(methylsulfonyl)phenyl)-1H-pyrrol-2-yl)-1H-pyrazol-3-yl)propan-2-ol]
1000 to 10000 | CN1CCN(C(=O)c2cc(-c3ccc(-c4cccc(S(C)(=O)=O)c4)s3)n(-c3ccccc3Cl)n2)CC1 [Example 508, 1-{[1-(2-chlorophenyl)-5-{5-[3-(methylsulfonyl)phenyl]-2-thienyl}-1H-pyrazole-3-yl]carbonyl}-4-methylpiperazine]
< 1000 | CC(C)(O)c1cc(-c2ccc(-c3cccc(S(C)(=O)=O)c3)cc2)n(-c2c(Cl)cccc2Cl)n1 [Example 133, 2-(1-(2,6-dichlorophenyl)-5-(3′-(methylsulfonyl)biphenyl-4-yl)-1H-pyrazol-3-yl)propan-2-ol]
> 10000 | 2-[1-(2-chlorophenyl)-5-{5-[3-(methylsulfonyl)phenyl]pyridin-2-yl}-1H-pyrazol-3-yl]propan-2-ol [Example 79]
< 1000 | CC(O)c1cc(-c2ccc(-c3cccc(S(C)(=O)=O)c3)s2)n(-c2ccccc2Cl)n1 (stereo not drawn) [Example 1157, 1-[1-(2-chlorophenyl)-5-{5-[3-(methylsulfonyl)phenyl]-2-thienyl}-1H-pyrazol-3-yl]ethanol]
1000 to 10000 | CC(C)(O)c1cc(-c2ccc(-c3cccc(NS(=O)(=O)C(F)(F)F)c3)cc2)n(-c2ccccc2Cl)n1 [Example 1310, N-{4′-[1-(2-chlorophenyl)-3-(1-hydroxy-1-methylethyl)-1H-pyrazol-5-yl]biphenyl-3-yl}-1,1,1-trifluoromethanesulfonamide]
< 1000 | CC(C)(O)c1cc(-c2ccc(-c3cccc(S(C)(=O)=O)c3)s2)n(-c2c(F)cccc2C(F)(F)F)n1 [Example 1353, 2-(1-[2-fluoro-6-(trifluoromethyl)phenyl]-5-{5-[3-(methylsulfonyl)phenyl]-2-thienyl}-1H-pyrazol-3-yl)propan-2-ol]
1000 to 10000 | COC(=O)CNC(=O)c1ccc(-c2cc(C(F)(F)F)nn2-c2ccccc2Cl)cc1 [Example 1354, methyl N-({4-[1-(2-chlorophenyl)-3-(trifluoromethyl)-1H-pyrazol-5-yl]phenyl}carbonyl)glycinate]

EC50 [nM] | Compound
1000 to 10000 | CC(CO)NC(=O)c1cc(-c2ccc(-c3cccc(S(C)(=O)=O)c3)s2)n(-c2ccccc2Cl)n1 (stereo not drawn) [Example 1270, 1-(2-chlorophenyl)-N-(2-hydroxy-1-methylethyl)-5-{5-[3-(methylsulfonyl)phenyl]-2-thienyl}-1H-pyrazole-3-carboxamide]
< 1000 | CCS(=O)(=O)c1cccc(-c2ccc(-c3cc(C(C)(C)C#N)nn3-c3ccccc3Cl)s2)c1 [Example 1180, 2-[1-(2-chlorophenyl)-5-{5-[3-(ethylsulfonyl)phenyl]-2-thienyl}-1H-pyrazol-3-yl]-2-methylpropanenitrile]
< 1000 | CS(=O)(=O)c1cccc(-c2ccc(-c3cc(C(F)(F)F)nn3-c3c(Cl)cccc3Cl)s2)c1 [Example 1227, 1-(2,6-dichlorophenyl)-5-{5-[3-(methylsulfonyl)phenyl]-2-thienyl}-3-(trifluoromethyl)-1H-pyrazole]
< 1000 | CC(C)(O)c1cc(-c2ccc(-c3cccc(S(C)(=O)=O)c3)cc2)n(-c2ncccc2C(F)(F)F)n1 [Example 1202, 2-{5-[3′-(methylsulfonyl)phenyl-4-yl]-1-[3-(trifluoromethyl)pyridin-2-yl]-1H-pyrazol-3-yl}propan-2-ol]
< 1000 | CS(=O)(=O)c1cccc(-c2ccc(-c3cc(C(F)(F)F)nn3CCN3CCOCC3)cc2)c1 [Example 1222, 4-(2-{5-[3′-(methylsulfonyl)phenyl-4-yl]-3-(trifluoromethyl)-1H-pyrazol-1-yl}ethyl)morpholine]
< 1000 | COC(F)(F)c1cc(-c2ccc(-c3cccc(S(C)(=O)=O)c3)s2)n(-c2ccccc2C(F)(F)F)n1 [Example 1211, 3-[difluoro(methyloxy)methyl]-5-{5-[3-(methylsulfonyl)phenyl]-2-thienyl}-1-[2-(trifluoromethyl)phenyl]-1H-pyrazole]
< 1000 | CS(=O)(=O)c1cccc(-c2ccc(-c3cc(C4(C#N)CCCC4)nn3-c3ccccc3Cl)s2)c1 [Example 1191, 1-[1-(2-chlorophenyl)-5-{5-[3-(methylsulfonyl)phenyl]-2-thienyl}-1H-pyrazol-3-yl]cyclopentanecarbonitrile]
< 1000 | Cc1cc(-c2cccc(S(C)(=O)=O)c2)sc1-c1cc(C(C)(C)O)nn1-c1c(Cl)cccc1Cl [Example 137, 2-(1-(2,6-dichlorophenyl)-5-(3-methyl-5-(3-(methylsulfonyl)phenyl)thiophen-2-yl)-1H-pyrazol-3-yl)propan-2-ol]
< 1000 | CC(C)(O)c1ccc(-c2ccc(-c3cc(C(F)(F)F)nn3-c3cc(Cl)ccc3Cl)s2)cc1S(C)(=O)=O [Example 1304, 2-[4-{5-[1-(2,5-dichlorophenyl)-3-(trifluoromethyl)-1H-pyrazol-5-yl]-2-thienyl}-2-(methylsulfonyl)phenyl]propan-2-ol]
1000 to 10000 | CN(CC#N)Cc1cc(-c2ccc(-c3cccc(S(C)(=O)=O)c3)s2)n(-c2ccccc2Cl)n1 [Example 558, [{[1-(2-chlorophenyl)-5-{5-[3-(methylsulfonyl)phenyl]-2-thienyl}-1H-pyrazol-3-yl]methyl}(methyl)amino]acetonitrile]
1000 to 10000 | CC(C)(O)c1nn(-c2ccccc2Cl)c(-c2ccc(-c3cccc(S(C)(=O)=O)c3)nc2)c1Cl [Example 132, 2-(4-chloro-1-(2-chlorophenyl)-5-(6-(3-(methylsulfonyl)phenyl)pyridin-3-yl)-1H-pyrazol-3-yl)propan-2-ol]
< 1000 | Cc1cc(-c2cccc(S(C)(=O)=O)c2)ccc1-n1nc(C(C)(C)O)cc1-c1c(F)cccc1Cl [Example 115, 2-(5-(2-chloro-6-fluorophenyl)-1-(3-methyl-3′-(methylsulfonyl)biphenyl-4-yl)-1H-pyrazol-3-yl)propan-2-ol]
1000 to 10000 | Cn1c(-c2cccc(S(C)(=O)=O)c2)ccc1-c1cc(C(C)(C)O)nn1-c1c(Cl)cccc1Cl [Example 1393, 2-(1-(2,6-dichlorophenyl)-5-(1-methyl-5-(3-(methylsulfonyl)phenyl)-1H-pyrrol-2-yl)-1H-pyrazole-3-yl)propan-2-ol]
< 1000 | CCc1ccccc1-n1nc(C(C)(C)O)c(Br)c1-c1ccc(-c2cccc(S(C)(=O)=O)c2)s1 [Example 1358, 2-[4-bromo-1-(2-ethylphenyl)-5-{5-[3-(methylsulfonyl)phenyl]-2-thienyl}-1H-pyrazol-3-yl]propan-2-ol]
1000 to 10000 | COC(=O)c1cc(-c2ccccc2Cl)n(-c2ccc(-c3cccc(S(C)(=O)=O)c3)nc2)n1 [Example 1244, methyl 5-(2-chlorophenyl)-1-{6-[3-(methylsulfonyl)phenyl]pyridin-3-yl}-1H-pyrazole-3-carboxylate]
1000 to 10000 | CS(=O)(=O)CCNC(=O)c1ccc(-c2cc(C(F)(F)F)nn2-c2ccccc2Cl)cc1 [Example 1364, 4-[1-(2-chlorophenyl)-3-(trifluoromethyl)-1H-pyrazol-5-yl]-N-[2-(methylsulfonyl)ethyl]benzamide]
